Laboratory results published in patent publication US20190134005A1 (BioMarin Pharmaceutical Inc., priority 2016, published 2019).
Read-outs that look alike come from different tables or passages of the source.

Biological target: T1, human CGT (Homo sapiens, UniProt Q16880)
T1 sequence (Q16880 21-541): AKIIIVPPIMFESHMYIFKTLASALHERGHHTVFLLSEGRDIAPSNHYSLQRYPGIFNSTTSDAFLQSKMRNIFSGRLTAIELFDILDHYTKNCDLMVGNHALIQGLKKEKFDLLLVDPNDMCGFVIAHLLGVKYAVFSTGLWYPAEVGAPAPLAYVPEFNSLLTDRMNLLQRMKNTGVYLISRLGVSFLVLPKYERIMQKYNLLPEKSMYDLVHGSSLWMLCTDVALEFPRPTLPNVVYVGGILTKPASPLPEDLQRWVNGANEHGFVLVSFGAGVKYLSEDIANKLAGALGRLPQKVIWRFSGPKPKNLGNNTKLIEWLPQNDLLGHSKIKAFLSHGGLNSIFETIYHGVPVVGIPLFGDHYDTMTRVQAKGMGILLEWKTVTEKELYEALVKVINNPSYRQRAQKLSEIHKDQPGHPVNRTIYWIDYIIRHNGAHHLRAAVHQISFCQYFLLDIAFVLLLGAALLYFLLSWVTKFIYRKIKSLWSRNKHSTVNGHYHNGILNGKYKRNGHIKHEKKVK
Assay: Assay 1: CGT Enzymatic Assay (RapidFire/MS/MS, 0.01% Tween 80)
Format: biochemical
Settings: Table 1, Compounds of Formula (I) and Formula (II), CGT enzymatic assay, read-out: IC50

[1] = C6-NBD-dihydro-galactosylceramide readout

IC50 | IC50 [1] | SMILES
< 1000 nM |  | COC[C@@H]1N(c2ccc(Cl)cc2)C(=O)N(c2ccc(Cl)cc2)C1(O)c1cccc(OC(F)F)c1 (stereo partly drawn) [Compound 238-1, (5S)-1,3-bis(4-chlorophenyl)-4-(3-(difluoromethoxy)phenyl)-4-hydroxy-5-(methoxymethyl)imidazolidin-2-one]
< 1000 nM |  | C#Cc1cccc(C2(O)[C@@H](C)N(c3ccc(Cl)cc3)C(=O)N2c2ccc(Cl)cc2)c1 (stereo partly drawn) [Compound 93-2, (5R)-1,3-bis(4-chlorophenyl)-4-(3-ethynylphenyl)-4-hydroxy-5-methylimidazolidin-2-one]
< 1000 nM |  | CC(=O)c1cccc(C2(O)C(C)N(c3ccc(Cl)cc3)C(=O)N2c2ccc(Cl)cc2)c1 (stereo not shown) [Compound 124, 4-(3-acetylphenyl)-1,3-bis(4-chlorophenyl)-4-hydroxy-5-methylimidazolidin-2-one]
10000 to 50000 nM |  | O=C1N(c2ccc(Cl)cc2)C(=O)C(O)(c2ccccc2)N1c1ccc(Cl)cc1 (stereo not shown) [Compound 147, 1,3-bis(4-chlorophenyl)-5-hydroxy-5-phenylimidazolidine-2,4-dione]
1000 to 10000 nM |  | C[C@@H]1N(c2ccccc2)C(=O)N(c2ccccc2)C1(O)c1cccc(OC(F)(F)F)c1 (stereo partly drawn) [Example 230-1, (5S)-4-hydroxy-5-methyl-1,3-diphenyl-4-(3-(trifluoromethoxy)phenyl)imidazolidin-2-one]
< 1000 nM |  | C[C@@H]1N(c2ccc(Cl)cc2)C(=O)N(c2ccc(Cl)cc2)C1(O)c1cccc(Cl)c1 (single isomer, unassigned) [Compound 62-1]
< 1000 nM |  | C[C@@H]1N(c2ccc(Cl)cc2)C(=O)N(c2ccc(Cl)cc2)C1(O)c1cccc(Br)c1 (stereo partly drawn) [Compound 94-1, (5S)-4-(3-bromophenyl)-1,3-bis(4-chlorophenyl)-4-hydroxy-5-methylimidazolidin-2-one]
< 1000 nM |  | CC[C@H]1N(c2ccc(Br)cc2)C(=O)N(c2ccc(Br)cc2)C1(O)c1cccc(C)c1 (stereo partly drawn) [Compound 76-2, (5R)-1,3-bis(4-bromophenyl)-5-ethyl-4-hydroxy-4-(m-tolyl)imidazolidin-2-one]
 | < 1000 nM | CC[C@@]1(C)N(c2ccc(C#N)cc2)C(=O)N(c2ccc(C#N)cc2)C1(O)c1cccc(OC(F)(F)F)c1 (stereo partly drawn) [Example 319-1, 4,4′-((4R)-4-ethyl-5-hydroxy-4-methyl-2-oxo-5-(3-(trifluoromethoxy)phenyl)imidazolidine-1,3-diyl)dibenzonitrile]
< 1000 nM |  | CCc1cccc(C2(O)[C@H](C)N(c3ccc(Cl)cc3)C(=O)N2c2ccc(Cl)cc2)c1 (stereo partly drawn) [Compound 69-1, (5S)-1,3-bis(4-chlorophenyl)-4-(3-ethylphenyl)-4-hydroxy-5-methylimidazolidin-2-one]
> 50000 nM |  | C[C@@]1(c2ccccc2)N(c2ccc(Cl)cc2)C(=O)N(c2ccc(Cl)cc2)[C@@]1(O)c1ccccc1 [Compound 121-2, (4R,5S)-1,3-bis(4-chlorophenyl)-4-hydroxy-5-methyl-4,5-diphenylimidazolidin-2-one]
< 1000 nM |  | N#Cc1cccc(C2(O)N(c3ccc(Cl)cc3)C(=O)N(c3ccc(Cl)cc3)[C@]23CCOC3)c1 (stereo partly drawn) [Example 221-1, 3-((5S)-1,3-bis(4-chlorophenyl)-4-hydroxy-2-oxo-7-oxa-1,3-diazaspiro[4.4]nonan-4-yl)benzonitrile]
< 1000 nM |  | CC(C)[C@H]1N(c2ccc(C(F)(F)F)cc2)C(=O)N(c2ccc(C(F)(F)F)cc2)C1(O)c1cccc(OC(F)(F)F)c1 (single isomer, unassigned) [Example 196-2]
< 1000 nM |  | CC1(C)N(c2ccc(Cl)cc2)C(=O)N(c2ccc(Cl)cc2)C1(O)c1cccc(OC(F)(F)F)c1 (stereo not shown) [Compound 133, 1,3-bis(4-chlorophenyl)-4-hydroxy-5,5-dimethyl-4-(3-(trifluoromethoxy)phenyl)imidazolidin-2-one]
 | < 1000 nM | N#Cc1ccc(N2C(=O)N(c3ccc(C#N)cc3)C(O)(c3cccc(OC(F)(F)F)c3)C23COC3)cc1 (stereo not shown) [Compound 275, 4,4′-(8-hydroxy-6-oxo-8-(3-(trifluoromethoxy)phenyl)-2-oxa-5,7-diazaspiro[3.4]octane-5,7-diyl)dibenzonitrile]
 | < 1000 nM | CC(C)c1c(-c2ccccc2)n(-c2ccc(Br)cc2)c(=O)n1-c1ccc(Br)cc1 [Compound 267, 1,3-bis(4-bromophenyl)-4-isopropyl-5-phenyl-1,3-dihydro-2H-imidazol-2-one]
50000 to 100000 nM |  | O=C1N(c2ccc(Br)cc2)C(=O)C(O)(C2Cc3ccccc3C2)N1c1ccc(Br)cc1 (stereo not shown) [Example 215, 1,3-bis(4-bromophenyl)-5-(2,3-dihydro-1H-inden-2-yl)-5-hydroxyimidazolidine-2,4-dione]
1000 to 10000 nM |  | O=C1N(c2ccc(Cl)cc2)CC(O)(c2cccc(Br)c2)N1c1ccc(Cl)cc1 (stereo not shown) [Example 55, 4-(3-bromophenyl)-1,3-bis(4-chlorophenyl)-4-hydroxyimidazolidin-2-one]
< 1000 nM |  | CCCCC1N(c2ccc(Cl)cc2)C(=O)N(c2ccc(Cl)cc2)C1(O)c1cccc(C#N)c1 (stereo not shown) [Compound 116, 3-(5-butyl-1,3-bis(4-chlorophenyl)-4-hydroxy-2-oxoimidazolidin-4-yl)benzonitrile]
> 50000 nM |  | O=C1N(c2ccc(OC3CCCC3)cc2)C(=O)C(O)(c2ccccc2)N1c1ccc(OC2CCCC2)cc1 (stereo not shown) [Example 168, 1,3-bis(4-(cyclopentyloxy)phenyl)-5-hydroxy-5-phenylimidazolidine-2,4-dione]
< 1000 nM |  | N#Cc1cccc(C2(O)N(c3ccc(Cl)cc3)C(=O)N(c3ccc(Cl)cc3)C23COC3)c1 (stereo not shown) [Compound 151, 3-(5,7-bis(4-chlorophenyl)-8-hydroxy-6-oxo-2-oxa-5,7-diazaspiro[3.4]octan-8-yl)benzonitrile]
< 1000 nM |  | N#Cc1cccc(C2(O)C(CC3CC3)N(c3ccc(Cl)cc3)C(=O)N2c2ccc(Cl)cc2)c1 (stereo not shown) [Compound 132, 3-(1,3-bis(4-chlorophenyl)-5-(cyclopropylmethyl)-4-hydroxy-2-oxoimidazolidin-4-yl)benzonitrile]
< 1000 nM |  | O=c1n(-c2ccc(Cl)cc2)c(-c2cccc(OC(F)F)c2)c(C2CC2)n1-c1ccc(Cl)cc1 [Compound 70, 1,3-bis(4-chlorophenyl)-4-cyclopropyl-5-(3-(difluoromethoxy)phenyl)-1,3-dihydro-2H-imidazol-2-one]
10000 to 50000 nM |  | C[C@]1(c2ccccc2)C(O)N(c2ccc(Cl)cc2)C(=O)N1c1ccc(Cl)cc1 (single isomer, unassigned) [Example 223-1]
< 1000 nM |  | CCc1c(-c2cccc(C#N)c2)n(-c2ccc(Cl)cc2)c(=O)n1-c1ccc(Cl)cc1 [Compound 258, 3-(1,3-bis(4-chlorophenyl)-5-ethyl-2-oxo-2,3-dihydro-1H-imidazol-4-yl)benzonitrile]

SMILES | IC50 | IC50 [1]
N#Cc1ccc(N2C(=O)N(c3ccc(Cl)cc3)C(O)(c3cccc(C#N)c3)C23CCC3)cc1 (stereo not shown) [Compound 268, 3-(7-(4-chlorophenyl)-5-(4-cyanophenyl)-8-hydroxy-6-oxo-5,7-diazaspiro[3.4]octan-8-yl)benzonitrile] |  | < 1000 nM
CC1(C)N(c2ccc(Cl)cc2)C(=O)N(c2ccc(C#N)cc2)C1(O)c1cccc(C#N)c1 (stereo not shown) [Example 323, 3-(1-(4-chlorophenyl)-3-(4-cyanophenyl)-4-hydroxy-5,5-dimethyl-2-oxoimidazolidin-4-yl)benzonitrile] |  | < 1000 nM
O=C1N(c2ccc(Br)cc2)C(=O)C(O)(c2ccc(OC3CCC3)cc2)N1c1ccc(Br)cc1 (stereo not shown) [Example 174, 1,3-bis(4-bromophenyl)-5-(4-cyclobutoxyphenyl)-5-hydroxyimidazolidine-2,4-dione] | > 50000 nM | 
